Experimental data from US20240197760A1, “ACTIVATORS OF INTEGRATED STRESS RESPONSE PATHWAY FOR PROTECTION AGAINST FERROPTOSIS” (Burke Neurological Institute, priority 2021, published 2024).

Assays:
AMPK = AMPK phosphorylation (threonine 172) immunoblot in primary cortical neurons; type: cell-based, mouse; conditions: increasing concentrations 1-15 mM, 4 h
Method: Whole cell proteins were extracted in Triton X-100 lysis buffer (1% Triton X-100, 1% SDS, 50 mM Tris-Cl, pH 7.4, 500 mM NaCl and 1 mM EDTA). Samples were boiled in Laemmli buffer and electrophoresed under reducing conditions on NuPAGER Novex 4-12% Bis-Tris Gel polyacrylamide gels (Invitrogen). Proteins were transferred to a nitrocellulose membrane (Bio-Rad) by electroblotting. Nonspecific binding was inhibited by incubation in Odyssey blocking buffer (LI-COR Biosciences). Antibodies against Glut3 (Abcam, Catalog no. AB41525, dilution 1:1000), actin (Sigma Aldrich, Catalog no. A5316, dilution 1:10000), BDNF (Santacruz Biotechnology, Catalog no. sc-546, dilution 1:10,000), tubulin (Sigma Aldrich, Catalog no. T8203, dilution 1:10000), p-AMPK (Cell Signaling Technology, Cat no. 2535L, dilution 1:1000), AMPK (Cell Signaling Technology, Cat no. 2532L, dilution 1:1000), GFP (Cell Signaling Technology, Cat no. 2555S, dilution 1:2000), elF2S1 (phospho S51) (Abcam, Catalog no. AB32157, dilution 1:500), and eIF2α (Cell Signaling Technology, Cat no. 9722, dilution 1:500) were diluted in odyssey blocking buffer and the membranes were incubated overnight at 4° C. […] Finally, proteins were detected using an Odyssey infrared imaging system (LI-COR Biosciences).

[1] = tested on: Trib3 promoter, Bdnf promoter; test: Promoter reporter luciferase assay in primary neurons; type: cell-based, mouse; conditions: 2-DG 9 h treatment, reporter in mouse primary neurons
Method: Primary neurons were co-transfected with various plasmids such as different Bdnf exon promoters each tagged with firefly luciferase or Trib3 promoter tagged with firefly luciferase and pTK-renilla luciferase plasmid at 1:10 ratio using Lipofectamine 2000 (Thermo Fisher Scientific, catalog number—11668019) according to the manufacturer's instructions to control for transfection efficiency. […] Thereafter, luciferase activity was measured using dual luciferase assay kit (Promega) and bioluminometer (MDS Analytical Technologies). Final luciferase activity was calculated by normalizing firefly luciferase activity with Renilla luciferase activity and then the valued were converted to fold change with respect to control.

Creb1, Bdnf, Rbbp4 = test: Plasticity gene expression by quantitative real time PCR in mouse primary neurons; type: cell-based
Method: Primary immature neuronal cultures were prepared from cerebral cortex of E14 embryos (day 14 of gestation) of CD1 mice under sterile conditions. Dissected cortices were incubated at 37° C. for 20 min in EBSS solution containing papain, L-cystine and EDTA, which was activated at 37 °C for 30 min and then was filtered through […] (Millipore, catalog number—SCGP00525). Cortices were then mechanically dissociated by trituration with glass pipettes. The rDNase was added in dissociated cells followed by incubation of these dissociated cells at 37 °C for 3 min. Thereafter, these cells were centrifuged at 2800 rpm for 5 min. Then supernatant was discarded, and cell were resuspended gently in a 5 ml mixture of EBSS and 10/10 solution (4:1 ratio). Then 5 ml of 10/10 solution was added gently on top and these resuspended cells were centrifuged at 2800 rpm for 10 min. Supernatant was again discarded and cells were resuspended in 10 ml MEM, Glutamax supplement (Thermo Fisher Scientific, Catalog number—41090036) containing 10% heat inactivated fetal bovine serum (Thermo Fisher Scientific, Catalog number—16140071), 5% heat inactivated horse serum (Thermo Fisher Scientific, Catalog number—26050088), and 1% penicillin/streptomycin (Thermo Fisher Scientific, Catalog number—15140122). Thereafter, resuspended cells were filtered through 70-micron cell strainer (Thomas Scientific, catalog number—4620F02) followed by their counting through Hemocytometer. Cells were, finally, plated at the density of 1 million cells/ml onto poly-D-Lysine (PDL; Sigma Aldrich, catalog number—P6407-10X5MG) coated pates and placed in CO2-buffered incubators at 37° C.
Total RNA was extracted from primary cortical neurons using NucleoSpin RNA II Kit (Clontech, Catalog number—740955-250). Thereafter, using the Taqman RNA-to-Ct, one step kit (Thermo Fisher Scientific, catalog number—4392938) and following the manufacturer's instructions, […] from each sample was mixed with the Taqman® Gene Expression Master Mix and Taqman® Gene Expression Assays for Creb1 (Catalog number—Mm00501607_m1), Bdnf (Catalog number—Mm04230607_s1), Rbbp4 (Catalog number—Mm00771401_g1), Bip (Catalog number—Mm00517691_m1), Trib3 (Catalog number—Mm00454879_m1), and Chac1 (Catalog number—Mm00509926_m1) with FAM labelled probe and Actin with VIC labelled probe all from Thermo Fisher Scientific on an Applied Biosystems 7500 Fast Real Time PCR System. For assessing gene expression of various specific Bdnf exons in mouse primary neurons, two step qPCR was used. Total RNA from primary cortical neurons was extracted using NucleoSpin RNA II Kit (Clontech, Catalog number—740955-250) and a total of 1.5 μg RNA was used to synthesize cDNA with the SuperScript® III First-Strand Synthesis System (Thermo Fisher Scientific, Catalog number—18080051). Quantitative RT-PCR was then performed using SYBR green (Thermo Fisher Scientific, Catalog number—4309155) on an Applied Biosystems 7500 Fast Real Time PCR System. Quantitative levels for all genes were normalized to the housekeeping gene GAPDH and expressed relative to the relevant control samples as fold change. The sequences of primers used in this part of the study were as follows: Bdnf I forward: […] (SEQ ID NO:9) and Bdnf I reverse: […] (SEQ ID NO:10); Bdnf II forward: […] (SEQ ID NO:11) and Bdnf II reverse: […] (SEQ ID NO:12); Bdnf IV forward #2: […] (SEQ ID NO:13) and Bdnf IV reverse #2: […] (SEQ ID NO:14); Bdnf VI forward: […] (SEQ ID NO:15) and Bdnf VI reverse: […] (SEQ ID NO:16); Bdnf VII forward: […] (SEQ ID NO:17) and Bdnf VII reverse: […] (SEQ ID NO:18) Bdnf IX forward: […] (SEQ ID NO:19) and Bdnf IX reverse: […] (SEQ ID NO:20); Gapdh forward #2: […] (SEQ ID NO:21) and Gapdh reverse #2: […] (SEQ ID NO: 22).

Compound: OC[C@H]1OC(O)C[C@@H](O)[C@@H]1O (stereo partly drawn) [2-DG, (4R,5S,6R)-6-(hydroxymethyl)oxane-2,4,5-triol]
- level of AMPK phosphorylation at threonine 172 (AMPK): biphasic
- Trib3 promoter activity with or without mutation in ATF4 binding site [1]: ATF4 binding site mutation completely blocked the 2-DG led induction of Trib3 promoter activity
- endogenous mRNA levels of six Bdnf transcript variants (Creb1, Bdnf, Rbbp4; 10 mM, 6 h, mouse primary neurons): all transcript variants were upregulated
- Creb1 and Bdnf gene expression with AMPK phosphorylation knocked down (Creb1, Bdnf, Rbbp4; adenoviral dominant negative AMPK, increasing concentrations of 2-DG): did not block 2-DG led increase in Creb1 and Bdnf gene expression
- Bdnf gene expression with dominant negative ATF4 (Creb1, Bdnf, Rbbp4; adenoviral dominant negative ATF4, 2-DG 6 h treatment): ATF4 knockdown blocked 2-DG led increase in Bdnf gene expression
- plasticity gene program in depolarized primary neurons (Creb1, Bdnf, Rbbp4; increasing concentration, co-treated with 25 mM KCl, 6 h): dose dependent increase in plasticity gene program
- changes in Bdnf gene expression (Creb1, Bdnf, Rbbp4; increasing concentrations 1-15 mM, primary cortical neurons): does dependent
- expression of plasticity genes Creb1, Bdnf and Rbbp4 (mRNA) (Creb1, Bdnf, Rbbp4; increasing concentrations, 6 h, mouse primary neurons): dose-dependent increase
